pEC50: −log10 of the molar value.
Experiments:
[1] = Negative inotropic activity assessed as decrease in developed tension in isolated guinea pig left atrium; assay type: functional, tissue-based; conditions: Cavia porcellus, Cardiac atrium
[2] = Negative chronotropic activity assessed as decrease in atrial rate in isolated guinea pig right atrium at 5 uM relative to control; assay type: functional, Cavia porcellus, Cardiac atrium; set-up: scale not given: the % may be the effect or the level left
[3] = tested on: Aorta; assay: Inhibition of calcium-induced contraction of potassium ion depolarized guinea pig aortic strips at 50 uM; assay type: functional; conditions: Cavia porcellus
[4] = Activity against alternating current-induced arrhythmia in guinea pig left atrium at 1 uM; assay type: functional, Cavia porcellus, Cardiac atrium
[5] = Negative inotropic activity assessed as decrease in developed tension in isolated guinea pig left atrium at 10 uM relative to control; assay type: functional, Cavia porcellus, Cardiac atrium; set-up: scale not given: the % may be the effect or the level left

pEC50 [1]: 6.22
SMILES: Cc1cc([N+](=O)[O-])cc(C)c1OC[C@H]1CCCN2CCCC[C@H]12
Activity [2]: 25% | inhibition at 50 µM [3]: 19% | Activity [4]: 23% | Activity [5]: 83%

— ChEMBL document CHEMBL1139835, “Novel quinolizidinyl derivatives as antiarrhythmic agents” (J Med Chem, 2007)
